In US9499495B2, “Quinazolines and azaquinazolines as dual inhibitors of RAS/RAF/MEK/ERK and PI3K/AKT/PTEN/mTOR pathways” (Asana Biosciences, LLC, priority 2013, dated 2016):

Tests used:
B-RAFV600E = target: T1, B-RAFV600E (Homo sapiens, UniProt P15056, V600E); test: B-RAFV600E radiometric assay; format: biochemical; conditions: read-out: Kinase assay B-Raf
T1 construct: purchased Millipore, USA 14-557
Protocol: Compound inhibition for B-RAFV600E was determined through radiometric assay using a BRAF enzyme (Catalog No. 14-557, Millipore, USA) and MEK-K97M protein as a substrate (Catalog No. 0785-0000-1, ProqQinase GmbH, Germany). The B-RAF kinase catalyzes the phosphorylation of MEK protein in the presence of gamma ATP (PLC-101, Jonaki, CCMB, Hyderabad), cold ATP and Mg^2+.
The phosphorylated protein product is detected by the scintillation counter Topcount® machine (Perkin Elmer). This assay has been adapted from the method previously reported by Yeh et al. (2007, Clinical Cancer Research; 13, 1576-1583). The assay measures the B-RAF mediated transfer of 32P from the gamma position of radiolabeled ATP onto MEK1-KD. The labeled phosphorylated protein was measured in MicroBeta® Trilux Counter (Perkin Elmer). The assay was validated with reference compounds RAF1 Kinase Inhibitor I and ZM 336372 inhibitor which are reported to be inhibitors of B-RAF enzyme (Lackey, 2000, Medicinal Chemistry Letters; 10(3):223-226; Kupcho, “Fluorescent High throughput kinase cascade assays for inhibitor characterization, RAF-MEK-ERK pathway, www.invitrogen.com, and Hall-Jackson, 1999, Chemical Biology; 6(8):559-568). B-RAF enzyme mixture (13 μL) was added to compound wells containing 2 μL of the NCE in 1% DMSO and incubated for 45 min at rt on a shaking incubator at 300 rpm. MEK-K97M (0.5 μg) and cold ATP to a final concentration of 5 μM, and hot ATP 0.1 μCi in a volume of 10 μL was added to each well and incubated for 2 h at rt on a shaking incubator at 300 rpm. The reaction was stopped by addition of […] (13 μL) containing ATP (1 mM: 495 μL 1N HCl and 5 μL 100 mM ATP). Aliquot (30 μL) was then transferred to the center of a 2 cm×2 cm P81 paper. P81 paper was washed 8×5 min each with ortho-phosphoric acid (0.5%). P81 papers are washed twice with acetone for […] Assay squares were allowed to dry for […] at 37° C. P81 paper are transferred to Optiplate™ (Perkin Elmer) and counted in a Topcount® counter (Perkin Elmer). Data was plotted against the compound concentration to generate dose-response curves and IC50 values were determined using a sigmoidal dose response curve fit GraphPad Prism® v5 software.

pERK in A375 cells = test: In Cell Western (ICW) assay, pERK in A375 cells; format: cell-based; conditions: Homo sapiens, A-375, 3 h treatment
Protocol: Cell lines A375, A2058 and RKO obtained from the ATCC as provided above, were grown, and after attaining ˜80% confluency were trypsinized, centrifuged and resuspended in fresh media. The cells were seeded at the specified density (20,000 to 50,000) in a 96-well format black-well clear bottom plate (Corning) and incubated overnight at 37° C. in a 5% CO2 incubator. The next day, compound dilutions of test compounds were prepared in 100% DMSO followed by dilutions in respective media. Treatment of test compounds was performed for 3 h at 37° C. in 5% CO2 incubator. Following 3 h drug treatment, the conditional media was discarded and the cells were washed once with cPBS (PBS containing 0.1% magnesium chloride hexahydrate and 0.1% anhydrous calcium chloride) and fixed with 4% paraformaldehyde in cPBS for 1 h at rt. After fixing, the cells were given three washes using cPBST (cPBS containing 0.1% Triton™ X-100 reagent) and then blocked using blocking solution (5% skimmed milk powder or 5% BSA prepared in cPBST) for 2 h at rt with shaking at 300 rpm. The cells were again washed thrice with cPBST and incubated with primary antibody phospho-p44/42 MAPK(Erk1/2)(Thr202/204) antibody (Cell Signaling, Catalog # 9101L), phospho S6 ribosomal protein (Cell Signaling, Catalog #4858L), phospho AKT (Thr 308) (Cell Signaling, Catalog #9275) or phospho AKT (Ser 473) (Cell Signaling, Catalog #4060L) in specified dilutions (1:500-1:2500), prepared in respective blocking solutions, in a racker overnight at 4° C. The next day, the cells were washed with 1× Delfia® wash buffer (4×1 wash) and incubated with secondary antibody (Delfia®-Eu-N1 labeled anti-rabbit antibody; PerkinElmer, Catalog #AD0105; dilutions: 1:2000 to 1:6000 in Delfia® assay buffer (PerkinElmer, Catalog #1244-111)) for 2 h at rt in the dark at 300 rpm. The cells were then given four washes with 1× Delfia® wash buffer and incubated with Wallac Delfia® Enhancement solution (100 μL; PerkinElmer, Catalog #1244-105) for 20 min at rt in the dark at 300 rpm. The fluorescence emission was then read at 615 nm with an excitation wavelength of 340 nm using a Victor V5 Fluorometer (Perkin Elmer, US). The cells were then washed once with 1×cPBS and incubated with 100 μL of 0.5 mg/mL of Hoechst 33258 dye prepared in cPBS and read at 460 nm with 355 nm excitation, thereby evaluating the correction factor.
The % inhibition for the test compounds of formula (I) (new chemical entities (NCEs)) was calculated keeping DMSO control as 0% and the IC50 values were determined using sigmoidal dose response curve fit in GraphPad Prism® v5 software.

mTOR kinase = target: T2, mTOR kinase (Homo sapiens, UniProt P42345); test: mTOR kinase TR-FRET assay; format: biochemical
T2 construct: purchased Millipore, US
Protocol: Compound inhibition for mTOR kinase was determined by homogeneous TR-FRET assay using ULight-p70 S6K (Thr 389) peptide as substrate. mTOR enzyme (Millipore, US; […]) was used in the assay. The reaction buffer was HEPES (50 mM, pH 7.5), EGTA (1 mM), and MnCl2 (3 mM). Test compound was pre-incubated with mTOR for 30 min followed by 50 nM ULight-p70 S6K (Thr 389) peptide along with ATP (20 μM).
After incubating the reaction mixture for 30 min, Eu-labeled anti-phospho-substrate antibody (1 nM, Perkin Elmer, USA) was added. Fluorescence emission at […] was measured upon excitation at 340 nm. The compound dilution was carried out in 100% DMSO followed by a buffer dilution. The kinase reaction was incubated for 1 h at rt followed by the addition of substrate-ATP mix and incubated at rt for 1 h. The reaction was terminated by the addition of EDTA followed by the addition of detection mix. IC50 values were determined using a sigmoidal dose response curve fit, GraphPad Prism® v5 software.

A375 cells = test: XTT assay for cell viability, A375 cells; format: cell-based; conditions: Homo sapiens, A-375, 72 h
Protocol: Cell lines (A375 ATCC No. CRL-1619, A2058 ATCC No. CRL-11147 and RKO ATCC No. CRL-2577, American Type Culture Collection (ATCC), Manassas Va.) once attaining ˜80% confluency were trypsinized, centrifuged and resuspended in fresh media. Cells (1000-2000/per well) were seeded in 96-well plate and incubated over-night at 37° C. in a 5% CO2 incubator. Compound dilutions were prepared in 100% DMSO followed by dilutions in the respective media. The cells were treated with NCEs for 72 h at 37° C. in 5% CO2 incubator. After 72 h, freshly prepared XTT (1 mg/ml)/PMS (25 μM) solution was added, incubated for 2 to 3 h at 37° C. and the absorbance was measured at 450 nm using an ELISA plate reader. Keeping DMSO control as 100%, the effect of the compound to inhibit the cell proliferation was calculated and the GI50 values were determined using sigmoidal dose response curve fit in GraphPad Prism® v5 software.

T1 sequence (P15056 416-766 V600E limits assumed): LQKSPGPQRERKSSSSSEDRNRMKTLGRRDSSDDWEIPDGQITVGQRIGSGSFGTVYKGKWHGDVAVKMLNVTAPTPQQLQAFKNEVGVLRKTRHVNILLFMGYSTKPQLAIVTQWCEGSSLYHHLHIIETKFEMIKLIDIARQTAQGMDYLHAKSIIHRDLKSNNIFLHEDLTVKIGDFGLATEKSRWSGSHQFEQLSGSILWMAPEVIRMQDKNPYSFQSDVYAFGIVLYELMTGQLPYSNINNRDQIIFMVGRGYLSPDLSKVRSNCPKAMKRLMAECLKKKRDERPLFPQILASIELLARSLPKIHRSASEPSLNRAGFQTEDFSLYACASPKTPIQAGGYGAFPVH
T2 sequence (P42345 1362-2549 limits assumed): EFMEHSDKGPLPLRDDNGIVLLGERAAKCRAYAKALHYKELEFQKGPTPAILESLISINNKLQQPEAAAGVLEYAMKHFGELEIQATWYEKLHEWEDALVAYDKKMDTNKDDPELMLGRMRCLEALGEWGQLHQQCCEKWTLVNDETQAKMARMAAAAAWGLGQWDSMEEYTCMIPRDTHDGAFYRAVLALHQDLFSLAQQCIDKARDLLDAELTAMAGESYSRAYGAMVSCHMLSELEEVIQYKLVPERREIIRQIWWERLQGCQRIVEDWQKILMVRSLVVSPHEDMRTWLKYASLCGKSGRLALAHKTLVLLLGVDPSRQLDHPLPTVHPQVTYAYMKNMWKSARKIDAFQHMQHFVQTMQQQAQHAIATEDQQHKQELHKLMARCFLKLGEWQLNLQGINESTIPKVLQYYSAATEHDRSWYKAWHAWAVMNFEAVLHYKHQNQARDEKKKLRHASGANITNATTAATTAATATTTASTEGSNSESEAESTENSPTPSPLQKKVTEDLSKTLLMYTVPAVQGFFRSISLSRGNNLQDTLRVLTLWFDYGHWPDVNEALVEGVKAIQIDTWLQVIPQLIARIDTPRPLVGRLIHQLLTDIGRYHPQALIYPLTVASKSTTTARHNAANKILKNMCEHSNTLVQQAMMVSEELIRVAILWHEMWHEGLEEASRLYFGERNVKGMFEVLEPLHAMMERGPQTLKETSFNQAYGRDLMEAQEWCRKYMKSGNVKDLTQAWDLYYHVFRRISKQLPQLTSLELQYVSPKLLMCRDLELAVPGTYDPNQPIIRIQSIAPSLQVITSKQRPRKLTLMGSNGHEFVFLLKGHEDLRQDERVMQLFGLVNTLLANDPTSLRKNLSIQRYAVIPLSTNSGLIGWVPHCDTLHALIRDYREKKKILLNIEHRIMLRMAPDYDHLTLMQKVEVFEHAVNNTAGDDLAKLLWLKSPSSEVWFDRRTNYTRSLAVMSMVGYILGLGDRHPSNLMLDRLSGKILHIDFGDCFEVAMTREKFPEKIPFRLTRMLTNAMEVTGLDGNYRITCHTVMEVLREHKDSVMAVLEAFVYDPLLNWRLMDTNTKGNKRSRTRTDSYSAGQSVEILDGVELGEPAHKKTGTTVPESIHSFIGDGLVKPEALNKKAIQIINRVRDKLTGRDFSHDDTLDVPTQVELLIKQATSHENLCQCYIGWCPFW

Row | IC50 (B-RAFV600E) [nM] | IC50 (pERK in A375 cells) [nM] | IC50 (mTOR kinase) [nM] | IC50 (A375 cells) [nM] | SMILES
1 | 1 to 100 | 100 to 1000 | 100 to 1000 | 100 to 1000 | COc1cc(-c2cccc(NS(=O)(=O)CC(C)C)c2F)cc2c(N3CCOCC3)nc(-c3cnc(N)nc3)nc12 [Example 20, N-(3-(2-(2-aminopyrimidin-5-yl)-8-methoxy-4-morpholinoquinazolin-6-yl)-2-fluorophenyl)-2-methylpropane-1-sulfonamide]
2 | 100 to 1000 | 100 to 1000 | 100 to 1000 | 1000 to 10000 | CCS(=O)(=O)Nc1cccc(-c2cc(OC)c3nc(-c4cnc(N)nc4)nc(N4CCOCC4)c3c2)c1F [Example 21, N-(3-(2-(2-aminopyrimidin-5-yl)-8-methoxy-4-morpholinoquinazolin-6-yl)-2-fluorophenyl) \ethanesulfonamide]
3 | 1 to 100 | 1 to 100 | 100 to 1000 | 100 to 1000 | COc1cc(-c2cccc(NS(=O)(=O)c3cc(F)ccc3F)c2F)cc2c(N3CCOCC3)nc(-c3cnc(N)nc3)nc12 [Example 22, N-(3-(2-(2-aminopyrimidin-5-yl)-8-methoxy-4-morpholinoquinazolin-6-yl)-2-fluorophenyl)-2,5-difluorobenzenesulfonamide]
4 | 1 to 100 | 1 to 100 | 100 to 1000 | 100 to 1000 | COc1cc(-c2cccc(NS(=O)(=O)CCCF)c2F)cc2c(N3CCOCC3)nc(-c3cnc(N)nc3)nc12 [Example 27, N-(3-(2-(2-aminopyrimidin-5-yl)-8-methoxy-4-morpholinoquinazolin-6-yl)-2-fluorophenyl)-3-fluoropropane-1-sulfonamide]

The next lines start with the compound.

Row | SMILES | IC50 (B-RAFV600E) [nM] | IC50 (pERK in A375 cells) [nM] | IC50 (mTOR kinase) [nM] | IC50 (A375 cells) [nM]
5 | CCCS(=O)(=O)Nc1ccc(F)c(-c2cc(OC)c3nc(-c4cnc(N)nc4)nc(N4CCOCC4)c3c2)c1F [Example 6, N-(3-(2-(2-aminopyrimidin-5-yl)-8-methoxy-4-morpholinoquinazolin-6-yl)-2,4-difluorophenyl)propane-1-sulfonamide] | 1 to 100 | 100 to 1000 | 1 to 100 | 100 to 1000
6 | CCCS(=O)(=O)Nc1cccc(-c2cc(OC)c3nc(-n4c(C(F)F)nc5ccccc54)nc(N4CCOCC4)c3c2)c1F [Example 9, N-(3-(2-(2-(difluoromethyl)-1H-benzo[d]imidazol-1-yl)-8-methoxy-4-morpholinoquinazolin-6-yl)-2-fluorophenyl)propane-1-sulfonamide] | 1 to 100 | 100 to 1000 | 100 to 1000 | 100 to 1000
7 | COc1cc(-c2cccc(NS(=O)(=O)c3c(F)cccc3F)c2F)cc2c(N3CCOCC3)nc(-c3cnc(N)nc3)nc12 [Example 13, N-(3-(2-(2-aminopyrimidin-5-yl)-8-methoxy-4-morpholinoquinazolin-6-yl)-2-fluorophenyl)-2,6-difluorobenzenesulfonamide] | 1 to 100 | 100 to 1000 | 100 to 1000 | 100 to 1000
8 | CCCS(=O)(=O)Nc1cccc(-c2cc(OC)c3nc(-c4ccc(NC(=O)NC)cc4)nc(N4CCOCC4)c3c2)c1F [Example 14, N-(2-fluoro-3-(8-methoxy-2-(4-(3-methylureido)phenyl)-4-morpholinoquinazolin-6-yl)phenyl)propane-1-sulfonamide] | 100 to 1000 | 100 to 1000 | 1 to 100 | 100 to 1000
9 | CCCS(=O)(=O)Nc1cccc(-c2cc(OC)c3nc(-c4cnc(N)nc4)nc(N4CCOCC4)c3c2)c1F [Example 15, N-(3-(2-(2-aminopyrimidin-5-yl)-8-methoxy-4-morpholinoquinazolin-6-yl)-2-fluorophenyl)propane-1-sulfonamide] | 100 to 1000 | 100 to 1000 | 100 to 1000 | 100 to 1000
10 | CCCS(=O)(=O)Nc1cccc(-c2cc(OC)c3nc(-c4ccc(N)nc4)nc(N4CCOCC4)c3c2)c1F [Example 17, N-(3-(2-(6-aminopyridin-3-yl)-8-methoxy-4-morpholinoquinazolin-6-yl)-2-fluorophenyl)propane-1-sulfonamide] | 1 to 100 | 100 to 1000 | 1 to 100 | 100 to 1000
11 | CCCS(=O)(=O)Nc1cccc(-c2cc(OC)c3nc(-c4ccc(N)nc4F)nc(N4CCOCC4)c3c2)c1F [Example 18, N-(3-(2-(6-amino-2-fluoropyridin-3-yl)-8-methoxy-4-morpholinoquinazolin-6-yl)-2-fluorophenyl)propane-1-sulfonamide] | 100 to 1000 | 100 to 1000 | 100 to 1000 | 100 to 1000
12 | COc1cc(-c2cccc(NS(=O)(=O)c3c(F)cccc3F)c2F)cc2c(N3CCOCC3)nc(-c3ccc(N)nc3)nc12 [Example 19, N-(3-(2-(6-aminopyridin-3-yl)-8-methoxy-4-morpholinoquinazoIin-6-yl)-2-fluorophenyl)-2,6-difluorobenzenesulfonamide] | 1 to 100 | 100 to 1000 | 100 to 1000 | 100 to 1000
